Earlier results on one molecule are cited in US20110071026A1, “LOW VISCOSITY, AQUEOUS […] CONCENTRATES” (priority 2009, published 2011).

For this data set the following is noted: at 25° C.; acid form.

On to `O=C(O)CNCP(=O)(O)O` [glyphosate, N-(phosphonomethyl)glycine], for which the solubility in water entry is recorded as “about 12 g/L”.
